Measurements published in patent US9120779B2, “Inhibitors of HCV NS5A” (PRESIDIO PHARMACEUTICALS, INC., priority 2008, dated 2015).
Read-outs that look alike come from different tables or passages of the source.

System: HCV genotype 1b replicon in Huh 7 cells
Assay: HCV replicon assay (luciferase readout, 1b_Huh-Luc/Neo-ET cell line)
Type: cell-based
Protocol: Biological activity of the compounds of the invention was determined using an HCV replicon assay. The 1b_Huh-Luc/Neo-ET cell line persistently expressing a bicistronic genotype 1b replicon in Huh 7 cells was obtained from R^eBLikon GMBH. This cell line was used to test compound inhibition using luciferase enzyme activity readout as a measurement of compound inhibition of replicon levels.
On Day 1 (the day after plating), each compound is added in triplicate to the cells. Plates incubated for 72 h prior to running the luciferase assay. Enzyme activity was measured using a Bright-Glo Kit (cat. number E2620) manufactured by Promega Corporation. The following equation was used to generate a percent control value for each compound. % Control=(Average Compound Value/Average Control)*100
The EC50 value was determined using GraphPad Prism and the following equation: Y=Bottom+(Top−Bottom)/(1+10^((Log IC50−X)*HillSlope))
EC50 values of compounds are repeated several times in the replicon assay.
Example compounds of the disclosed invention are illustrated in Tables 1-9 attached as appendices. The tables show inhibitory activity of many of the example compounds with respect to HCV 1b. […] The tables further provide mass spectrometry results for the synthesized example compounds.

[1] = Hepatitis C virus, Huh-7, 72 h, read-out: Inhibition of HCV genotype 1b, Table 3, 72 h incubation
[2] = Hepatitis C virus, Huh-7, 72 h, read-out: Inhibition of HCV genotype 1b, Table 5, 72 h incubation
[3] = Hepatitis C virus, Huh-7, 72 h, read-out: Inhibition of HCV genotype 1b, Table 1, 72 h incubation
[4] = read-out: Inhibition of HCV genotype 1b, Table 5, 72 h incubation

Structure (SMILES) | EC50 [1] [nM] | EC50 [2] [nM] | also measured
COC(=O)N[C@H](C(=O)N1CCCC[C@H]1c1ncc(C2CCN(c3c(F)cc(-c4cnc([C@@H]5CCCN5C(=O)[C@H](NC(=O)OC)c5ccccc5)[nH]4)cc3F)CC2)[nH]1)C(C)C [compound 500] | < 1 |  | 
COC(=O)N[C@H](C(=O)N1CCC[C@H]1c1ncc(-c2ccc(C34CCC(c5cnc([C@@H]6CCCN6C(=O)[C@@H](NC(=O)N6CCOCC6)C(C)C)[nH]5)(CC3)CC4)cc2)[nH]1)C(C)C [compound 2060] |  | < 1 | 
CC(C)(C)OC(=O)N[C@@H](C(=O)N1CCC[C@H]1c1ncc(-c2cc(F)c(N3CCC(c4cnc([C@@H]5CCCN5C(=O)[C@H](NC(=O)OC(C)(C)C)c5ccccc5)[nH]4)CC3)c(F)c2)[nH]1)c1ccccc1 [compound 482] | < 1 |  | 
CC(C)(C)OC(=O)N[C@@H](C(=O)N1CCC[C@H]1c1ncc(-c2ccc(C3CCC(c4cnc([C@@H]5CCCN5C(=O)[C@H](NC(=O)OC(C)(C)C)c5ccccc5)o4)CC3)cc2)[nH]1)c1ccccc1 (stereo partly shown) [compound 352] |  |  | EC50 [3]: 1 to 9.9 nM
COC(=O)N[C@@H](C(=O)N1CCC[C@H]1c1ncc(C23CCC(c4ccc(-c5cnc([C@@H]6CCCN6C(=O)[C@@H](c6ccccc6)N6CCCC6)[nH]5)cc4)(CC2)CC3)[nH]1)c1ccccc1 [compound 623] |  | < 1 | 
COC(=O)N[C@@H](C(=O)N1CCC[C@H]1C(=O)NC1CCN(c2ccc(-c3cnc([C@@H]4CCCN4C(=O)[C@H](NC(=O)OC)c4ccccc4)[nH]3)cc2F)CC1)c1ccccc1 [compound 454] | < 1 |  | 
COC(=O)N[C@@H](C(=O)N1CCC[C@H]1c1ncc(-c2cc(F)c(N3CCC(c4cnc([C@@H]5COCCN5C(=O)[C@H](NC(=O)OC)c5ccccc5)[nH]4)CC3)c(F)c2)[nH]1)c1ccccc1 [compound 492] | < 1 |  | 
COC(=O)N[C@H](C(=O)N1CCC[C@H]1c1ncc(-c2ccc(C34CCC(c5cnc([C@@H]6CCCN6C(=O)[C@@H](NC(=O)N6CCCCC6)C(C)C)[nH]5)(CC3)CC4)cc2)[nH]1)C(C)C [compound 640] |  | > 1000 | 
CC(C)[C@@H](NC(=O)OC(C)(C)C)C(=O)N1CCC[C@H]1c1ncc(-c2ccc(C3CCC(c4cnc([C@@H]5CCCN5C(=O)[C@H](NC(=O)OC(C)(C)C)C(C)C)[nH]4)CC3)cc2)[nH]1 (stereo partly shown) [compound 366] |  |  | EC50 [3]: 10 to 999 nM
CCN(CC)[C@@H](C(=O)N1CCC[C@H]1c1ncc(C2CCN(c3c(F)cc(-c4cnc([C@@H]5CCCN5C(=O)[C@H](NC(=O)OC)c5ccccc5)[nH]4)cc3F)CC2)[nH]1)c1ccccc1 [compound 467] | < 1 |  | 
CCN(CC)[C@@H](C(=O)N1CCC[C@H]1c1ncc(C23CCC(c4ccc(-c5cnc([C@@H]6CCCN6C(=O)[C@H](NC(=O)OC)c6ccccc6)[nH]5)cc4)(CC2)CC3)[nH]1)c1ccccc1 [compound 619] |  | < 1 | 
COC(=O)N[C@@H](C(=O)N1CCC[C@H]1c1ncc(C23CCC(c4ccc(-c5cnc([C@@H]6CCCN6C(=O)[C@@H](c6ccccc6)N(C)C)[nH]5)cc4)(CC2)CC3)[nH]1)c1ccccc1 [compound 622] |  | < 1 | 
CC(C)[C@@H](NC(=O)OC(C)(C)C)C(=O)N1CCC[C@H]1C(=O)N[C@H]1CC[C@H](c2ccc(-c3cnc([C@@H]4CCCN4C(=O)[C@H](NC(=O)OC(C)(C)C)C(C)C)[nH]3)cc2)CC1 [compound 356] |  |  | EC50 [3]: 10 to 999 nM
COC(=O)N[C@H](C(=O)N1CCC[C@H]1c1ncc(C23CCC(c4ccc(-c5cnc([C@@H]6CCCN6C(=O)[C@H](NC6CCOCC6)C(C)C)[nH]5)cc4)(CC2)CC3)[nH]1)C(C)C [compound 915] |  | < 1 | 
COC(=O)N[C@@H](C(=O)N1CCC[C@H]1c1ncc(-c2ccc(C34CCC(c5cnc([C@@H]6CCCN6C(=O)[C@@H](NC(=O)N6CCOCC6)C(C)C)[nH]5)(CC3)CC4)cc2)[nH]1)c1ccccc1 [compound 643] |  |  | EC50 [4]: 1 to 9.9 nM
COC(=O)N[C@@H](C(=O)N1CCC[C@H]1c1cnc(N2CCN(c3ccc(-c4cnc([C@@H]5CCCN5C(=O)[C@H](NC(=O)OC)c5ccccc5)[nH]4)cc3)C(=O)C2)[nH]1)c1ccccc1 [compound 2113] |  |  | EC50 (Hepatitis C virus, Huh-7, 72 h, read-out: Inhibition of HCV genotype 1b, Table 7, 72 h incubation): < 1 nM
COC(=O)N[C@@H](C(=O)N1CCC[C@H]1c1ncc(-c2ccc(-c3ccc4nc([C@@H]5CCCN5C(=O)[C@H](NC(=O)OC)c5ccccc5)[nH]c4c3)cc2)[nH]1)c1ccccc1 [compound 401] |  |  | EC50 (Hepatitis C virus, Huh-7, 72 h, read-out: Inhibition of HCV genotype 1b, Table 2, 72 h incubation): < 1 nM
COC(=O)N[C@@H](C(=O)N1CCCC[C@H]1c1ncc(C2CCN(c3c(F)cc(-c4cnc([C@@H]5CCCN5C(=O)[C@@H](c5ccccc5)N5CCCCC5)[nH]4)cc3F)CC2)[nH]1)c1ccccc1 [compound 491] | < 1 |  | 
COC(=O)N[C@@H](C(=O)N1CCC[C@H]1c1ncc(C2CCN(c3c(F)cc(-c4cnc([C@@H]5CCCN5C(=O)[C@H](NC(=O)N5CCOCC5)c5ccccc5)[nH]4)cc3F)CC2)[nH]1)c1ccccc1 [compound 481] | < 1 |  | 

Structure (SMILES) | EC50 [1] [nM] | EC50 [2] [nM] | also measured
COC(=O)N[C@@H](C(=O)N1CCOC[C@H]1c1ncc(C2CCN(c3c(F)cc(-c4cnc([C@@H]5CCCN5C(=O)[C@H](NC(=O)C5CC5)c5ccccc5)[nH]4)cc3F)CC2)[nH]1)c1ccccc1 [compound 502] | < 1 |  | 
COC(=O)N[C@@H](C(=O)N1CCC[C@H]1c1ncc(-c2ccc([C@H]3CC[C@@H](NC(=O)[C@@H]4CCCN4C(=O)[C@H](NC(=O)N4CCOCC4)c4ccccc4)CC3)cc2)[nH]1)c1ccccc1 [compound 370] |  |  | EC50 [3]: 1 to 9.9 nM
COC(=O)N[C@H](C(=O)N1CCC[C@H]1c1ncc(C23CCC(c4ccc(-c5cnc([C@@H]6CCCN6C(=O)[C@@H](NC(=O)N6CCC[C@H]6CO)C(C)C)[nH]5)cc4)(CC2)CC3)[nH]1)C(C)C [compound 652] |  | < 1 | 
COC(=O)N[C@H](C(=O)N[C@H](c1ncc(C2CCN(c3c(F)cc(-c4cnc([C@@H]5CCCN5C(=O)[C@@H](NC(=O)OC)C(C)C)[nH]4)cc3F)CC2)[nH]1)C(C)C)C(C)C [compound 515] | < 1 |  | 
COC(=O)N[C@H](C(=O)N[C@@H](C)c1ncc(-c2ccc(C34CCC(c5cnc([C@@H]6CCCN6C(=O)[C@H](C(C)C)N(C)C)[nH]5)(CC3)CC4)cc2)[nH]1)C(C)C [compound 2078] |  | < 1 | 
CC[C@H](C)[C@H](NC(=O)OC)C(=O)N1CCC[C@H]1c1ncc(C23CCC(c4ccc(-c5cnc([C@@H]6CCCN6C(=O)[C@@H](NC(=O)OC)C(C)C)[nH]5)cc4)(CC2)CC3)[nH]1 [compound 2066] |  | < 1 | 
COC(=O)N[C@H](Cc1ccccc1)C(=O)N1CCC[C@H]1c1ncc(C23CCC(c4ccc(-c5cnc([C@@H]6CCCN6C(=O)[C@H](NC(=O)OC)c6ccccc6)[nH]5)cc4)(CC2)CC3)[nH]1 [compound 610] |  | < 1 | 
COC(=O)N[C@@H](C(=O)N[C@@H](C)c1ncc(C2CCN(c3c(F)cc(-c4cnc([C@@H]5CCCN5C(=O)[C@H](NC(=O)OC)c5ccccc5)[nH]4)cc3F)CC2)[nH]1)c1ccccc1 [compound 517] | < 1 |  | 
COC(=O)N[C@@H](C(=O)N1CCC[C@H]1c1ncc(-c2ccc(C34CCC(c5cnc([C@@H]6CCCN6C(=O)[C@@H](NC(=O)N6CCN(C)CC6)C(C)C)[nH]5)(CC3)CC4)cc2)[nH]1)c1ccccc1 [compound 642] |  |  | EC50 [4]: 1 to 9.9 nM
O=C(N[C@@H](C(=O)N1CCC[C@H]1C(=O)NC1CCN(c2ccc(-c3cnc([C@@H]4CCCN4C(=O)[C@H](NC(=O)C4CC4)c4ccccc4)[nH]3)cc2F)CC1)c1ccccc1)C1CC1 [compound 456] | < 1 |  | 
COC(=O)N[C@@H](C(=O)N1CCC[C@H]1c1ncc(-c2cc(F)c(N3CCC(c4cnc([C@@H]5CCCN5C(=O)[C@H](NS(=O)(=O)C5CC5)c5ccccc5)[nH]4)CC3)c(F)c2)[nH]1)c1ccccc1 [compound 477] | < 1 |  | 
COC(=O)N[C@H](C(=O)N[C@@H](C)c1ncc(-c2ccc(C34CCC(c5cnc([C@@H]6CCCN6C(=O)[C@@H](NC(=O)OC)C(C)C)[nH]5)(CC3)CC4)cc2)[nH]1)C(C)C [compound 2074] |  | < 1 | 
COC(=O)N[C@H](C(=O)N1CCC[C@H]1c1ncc(-c2ccc([C@H]3CC[C@H](c4cnc([C@@H]5CCCN5C(=O)[C@@H](c5ccccc5)N5CCCCC5)[nH]4)CC3)cc2)[nH]1)C(C)C [compound 947] |  |  | EC50 [3]: < 1 nM
COC(=O)N[C@@H](C(=O)N1CCC[C@H]1c1ncc(-c2ccc(C34CCC(c5cnc([C@@H]6CCCN6C(=O)[C@H](NC(=O)OC)C(C)C)[nH]5)(CC3)CC4)cc2)[nH]1)c1ccccc1 [compound 616] |  | < 1 | 
COC(=O)N[C@@H](C(=O)N1CCC[C@H]1c1ncc(-c2cc(F)c(N3CCC(c4cnc([C@@H]5CCCN5C(=O)[C@H](NS(C)(=O)=O)c5ccccc5)[nH]4)CC3)c(F)c2)[nH]1)c1ccccc1 [compound 474] | < 1 |  | 
COC(=O)N[C@@H](C(=O)N1CCCC[C@H]1c1ncc(C2CCN(c3c(F)cc(-c4cnc([C@@H]5CCCN5C(=O)[C@H](NC(=O)C5CC5)c5ccccc5)[nH]4)cc3F)CC2)[nH]1)c1ccccc1 [compound 493] | < 1 |  | 
COC(=O)N[C@@H](C(=O)N1CCC[C@H]1c1ncc(-c2ccc(C34CCC(c5cnc([C@@H]6CCCN6C(=O)[C@@H](NC(=O)N6CCN(C)CC6)C(C)C)[nH]5)(CC3)CC4)cc2)[nH]1)c1ccccc1 [compound 637] |  | 1 to 9.9 | 
COC(=O)N[C@@H](C(=O)N1CCC[C@H]1c1ncc(-c2cc(F)c(N3CCC(c4cnc([C@@H]5CCCN5C(=O)[C@H](NC(=O)OC)C(C)C)[nH]4)CC3)c(F)c2)[nH]1)C(C)C [compound 498] | 1 to 9.9 |  | 
